The subject of data set [1] is Plasmodium falciparum. Briefly: Antimalarial activity against Plasmodium falciparum 3D7 infected in human erythrocytes. In kind it is functional, organism-based. The settings on record: 3D7, Erythrocyte.
For data set [2], the system named is Plasmodium falciparum. Briefly: Antimalarial activity against Plasmodium falciparum W2 incubated for 24 hrs. The settings on record: for IC50: Plasmodium falciparum, W2, 24 h. In kind it is functional, organism-based.
Data set [3] deals with Plasmodium falciparum. Briefly: Antiplasmodial activity against Chloroquine resistant Plasmodium falciparum FcB1 incubated for 48 hrs by SYBR green I based fluorescence assay. It counts as functional, organism-based. The settings on record: FcB1, 48 h.
Data set [4] concerns Plasmodium berghei. Briefly: In vivo plasmodial activity against Plasmodium berghei ANKA infected in Swiss mouse assessed as survival rate at 50 mg/kg, ip for 4 days after infection relative to control. In kind it is functional. The settings on record: time 4 day.
The nature of data set [5]: Cytotoxicity against African green monkey Vero cells. Conditions: chlorocebus sabaeus. It counts as toxicity, cell-based.
In data set [6] the test system is Plasmodium falciparum. Briefly: Antimalarial activity against chloroquine resistant Plasmodium falciparum K1 incubated for 72 hrs by SYBR green staining based fluorescence reader method. In kind it is functional, organism-based. Conditions: K1, 72 h.
Data set [7] in a line: Selectivity index, ratio of CC50 for african green monkey Vero cells to IC50 for Chloroquine resistant Plasmodium falciparum K1. In kind it is toxicity. Conditions: read-out: Ratio CC50/IC50.
Data set [8] relates to Plasmodium falciparum. Briefly: Antiplasmodial activity against Plasmodium falciparum K1. It counts as functional, organism-based.
Data set [9] relates to Plasmodium falciparum. Briefly: Antimalarial activity against Plasmodium falciparum D10. It counts as functional, organism-based.
A short description of data set [10]: Cytotoxicity against HMEC-1 cells. It counts as toxicity, cell-based. The settings on record: human.
Data set [11] concerns Plasmodium falciparum. Briefly: Antimalarial activity against Plasmodium falciparum W2. It counts as functional, organism-based.
Data set [12] deals with Plasmodium falciparum. Briefly: Antimalarial activity against Plasmodium falciparum Dd2 treated for 48 hrs followed by hypoxanthine addition. It counts as functional, organism-based. The settings on record: Dd2, 48 h.
In data set [13] the test system is Plasmodium berghei. Briefly: In vivo antiplasmodial activity against Chloroquine susceptible Plasmodium berghei ANKA infected in CD-1 mouse assessed as decrease in parasitaemia at 30 to 50 mg/kg/day, ip relative to control. In kind it is functional. The arrangement: scale not given: the % may be the effect or the level left. Conditions: dose 30-50 mg/kg/day.
Data set [14] concerns Plasmodium falciparum. Briefly: Antiplasmodial activity against Chloroquine resistant Plasmodium falciparum FcB1 incubated for 48 hrs. It counts as functional, organism-based. The settings on record: FcB1, 48 h.
The test system of data set [15] is Plasmodium falciparum. Briefly: Antiplasmodial activity against Chloroquine resistant plasmodium falciparum FCR-3. In kind it is functional, organism-based.
Data set [16] relates to Plasmodium falciparum. Briefly: Antimalarial activity against Plasmodium falciparum K14 incubated for 42 hrs in presence of 3H-hypoxanthine by top-count microbeta counter analysis. It counts as functional, organism-based.
Data set [17] is described as follows: Cytotoxicity against HMEC-1 cells treated for 72 hrs by MTT assay. It counts as toxicity, cell-based. Conditions: human.
In data set [18] the test system is Plasmodium falciparum. Briefly: Antimalarial activity against chloroquine resistant Plasmodium falciparum W2 incubated for 72 hrs by spectrophotometric analysis. In kind it is functional, organism-based. The settings on record: W2, 72 h.
For data set [19], the system named is Plasmodium falciparum. Briefly: Antimalarial activity against chloroquine sensitive Plasmodium falciparum D10 incubated for 72 hrs by spectrophotometric analysis. It counts as functional, organism-based. The settings on record: D10, 72 h.
The subject of data set [20] is Plasmodium falciparum. Briefly: Antiplasmodial activity against chloroquine sensitive Plasmodium falciparum F-32 Tanzania incubated for 48 hrs. In kind it is functional, organism-based.
Data set [21] deals with Plasmodium falciparum. Briefly: Antimalarial activity against Plasmodium falciparum K1 by 96-well microtitre plate method based scintillation counting analysis. It counts as functional, organism-based. Conditions: Plasmodium falciparum, K1.
In data set [22] the test system is Plasmodium falciparum. Briefly: Antimalarial activity against Plasmodium falciparum Dd2 by 96-well microtitre plate method based scintillation counting analysis. It counts as functional, organism-based.
Data set [23] deals with Plasmodium falciparum. Briefly: Antiplasmodial activity against Plasmodium falciparum Dd2 incubated for 48 hrs. In kind it is functional, organism-based. Conditions: Dd2, 48 h.
The subject of data set [24] is Plasmodium falciparum. Briefly: Antiplasmodial activity against Plasmodium falciparum 3D7 incubated for 48 hrs. In kind it is functional, organism-based. Conditions: 3D7, 48 h.

Values after ≈ are worked out from the molar mass of the structure shown.

The compound `COc1ccc(CC2=C(O)C(=O)c3ccccc3C2=O)cc1` returned an IC50 in the data set on Plasmodium falciparum [1] of 16 µM.
In the data set on Plasmodium falciparum [2], `CC(=O)OC1=C(CC=C(C)C)C(=O)c2ccccc2C1=O` returned an IC50 of 2.3 µM. In the data set with Plasmodium falciparum [2] (time 24 hrs), this compound showed an IC100 of 4.7 µM.
For `CC(C)(C)CC1=C(O)C(=O)c2ccccc2C1=O`, half-maximal inhibition with Plasmodium falciparum [1] (IC50) was put at 15.2 µM.
On to `COc1ccc2c(c1)C1=C(C(=O)C2=O)C(C)(C)C(C)O1` (centres undefined), for which the 50% inhibitory concentration (IC50) in the data set on Plasmodium falciparum [3] is 0.58 µM.
As for `COc1cccc2c1C1=C(C(=O)C2=O)C(C)(C)C(C)O1` (centres undefined), the Activity in the data set on Plasmodium berghei [4] is listed as 80%. This compound came in with an IC50 with Plasmodium falciparum [3] of 0.63 µM.
In the case of `CC1(C)OC2=C(CC1I)C(=O)C(=O)c1ccccc12` (centres undefined), the midpoint of inhibition in the data set with Plasmodium falciparum [2], the IC50, lay at 15.8 µM.
`Cc1cc(O)c2c(c1)C(=O)c1cc(O)c(CN3CCN(C)CC3)c(O)c1C2=O` returned a CC50 in data set [5] of 782 µM. In addition, it took 2.48 µM to reach half-maximal inhibition in the data set on Plasmodium falciparum [6] (IC50). Further, in data set [7], the selectivity ratio was found to be 315.
For `O=C(O)c1ccc2c(n1)C(=O)C1=C(C2=O)S(=O)(=O)C=CN1`, 0.6 µM corresponded to half-maximal inhibition with Plasmodium falciparum [8] (IC50).
Take `COC1=C(Cc2ccc(OC)cc2)C(=O)C2=C(NCCS2(=O)=O)C1=O`: the values for the IC50 (with Plasmodium falciparum [9]; in data set [10]; with Plasmodium falciparum [11]) were 1.22 µM, 17.9 µM and 1.21 µM, respectively.
In the data set with Plasmodium falciparum [12], `CC1=C(Cc2ccc(O)cc2)C(=O)c2ccccc2C1=O` registered an IC50 of 0.055 µM. In addition, in the data set on Plasmodium berghei [13], the Activity is given as 20.7%.
In turn, `COc1cc2c(cc1O)CO[C@@H]1C3=C(OC[C@H]21)C(=O)c1ccccc1C3=O` had an IC50 in the data set on Plasmodium falciparum [14] of 0.04 µM.
The compound `COC(=O)/C(=C\CC/C(C)=C/CC/C(C)=C/CC1=CC(=O)C=C(C)C1=O)CCC=C(C)C` showed an IC50 in the data set with Plasmodium falciparum [15] of 8.2 µM.
As for `CN(C)c1ccc(N2C(=O)C(Oc3ccc(Cl)cc3Cl)C2c2ccc3c(c2)C(=O)c2ccccc2C3=O)cc1` (centres undefined), the IC50 in the data set with Plasmodium falciparum [16] amounted to 48 µM.
Compound `COc1cc2c(cc1O)[C@H]1COC3=C(C(=O)c4ccccc4C3=O)[C@H]1OC2` yielded an IC50 in the data set on Plasmodium falciparum [14] of 0.03 µM.
In the case of `CCC1=C(NC(=O)C(C)(C)C)C(=O)C2=C(NCCS2(=O)=O)C1=O`, 1.6 µM corresponded to half-maximal inhibition in [17] (IC50 at 72 h). The half-maximal inhibitory concentration (IC50) came to 0.58 µM in the data set on Plasmodium falciparum [18] and 0.39 µM in the data set with Plasmodium falciparum [19].
For `O=C1c2ccccc2C(=O)c2cc(C3C(Oc4ccc(Cl)cc4)C(=O)N3c3cccc4ccccc34)ccc21` (centres undefined), the IC50 in the data set with Plasmodium falciparum [16] was determined as 45 µM.
Take `O=C1c2ccccc2C(=O)c2cc(C3C(Oc4ccccc4)C(=O)N3c3cccc4ccccc34)ccc21` (centres undefined): the IC50 with Plasmodium falciparum [16] is 41 µM.
For `O=C1C=C(OCc2cn(-c3ccccc3)nn2)C(=O)c2ccccc21`, the IC50 in the data set with Plasmodium falciparum [20] was determined as 1.2 µM.
Consider `COc1ccc(N2C(=O)C(Oc3ccccc3)C2c2ccc3c(c2)C(=O)c2ccccc2C3=O)cc1` (centres undefined), for which, in the data set with Plasmodium falciparum [16], the IC50 amounted to 27 µM.
Regarding `O=C(O)c1cc2c(s1)C(=O)C1=C(C2=O)S(=O)(=O)C=CN1`, the midpoint of inhibition in the data set on Plasmodium falciparum [8], the IC50, lay at 0.035 µM.
For the compound `CC1=C(Cc2ccc(C(C)(C)C)cc2)C(=O)c2ccccc2C1=O`, it took 0.054 µM to reach half-maximal inhibition in the data set on Plasmodium falciparum [12] (IC50). In the data set on Plasmodium berghei [13], the Activity turned out to be 20.7%.
Turning to `COC1=C(Cc2ccc(Cl)cc2)C(=O)C2=C(NCCS2(=O)=O)C1=O`, the IC50 with Plasmodium falciparum [9] was 1.9 µM; in [10] it was 8.51 µM; with Plasmodium falciparum [11] it was 1.63 µM.
Compound `O=C1C=C(OCc2cn(/C=C/c3ccc(C(F)(F)F)cc3)nn2)C(=O)c2ccccc21` registered a half-maximal inhibitory concentration (IC50) in the data set on Plasmodium falciparum [20] of 3.3 µM.
In the data set with Plasmodium falciparum [21], `COc1cc(OC)c(-c2c(C)cc(O)c3c2C(=O)c2cccc(O)c2C3=O)c(O)c1C(C)=O` came in with an IC50 of 0.751 µg/mL (≈ 1.67 µM).
In the data set with Plasmodium falciparum [22], `Cc1cc2c(c(C3=C(O)C(=O)c4c(O)ccc(O)c4C3=O)c1)C(=O)c1c(O)c3c(c(O)c1C2=O)C=CC(C)(C)O3` gave an IC50 of 1.57 µg/mL (≈ 2.9 µM).
On to `CCCC/C=C/C1=C(O)C(=O)c2ccccc2C1=O`, for which the IC50 amounted to 0.22 µM with Plasmodium falciparum [23] and 2.4 µM with Plasmodium falciparum [24].
On to `CC(C)=CCC1=C(O)C(=O)c2c(O)ccc(O)c2C1=O`, for which, in the data set on Plasmodium falciparum [22], it took 0.8 µg/mL (≈ 2.92 µM) to reach half-maximal inhibition (IC50).
As to `CCC1=C(NC(=O)C(C)(C)C)C(=O)C2=C(C1=O)S(=O)(=O)CCN2`, the IC50 at 72 h in data set [17] was greater than 100 µM. For the same compound, the figures for the IC50 in the data set with Plasmodium falciparum [18] and in the data set on Plasmodium falciparum [19] were 6.31 µM and 6.15 µM, respectively.
In the case of `CN(C)c1ccc(N2C(=O)C(Oc3ccccc3)C2c2ccc3c(c2)C(=O)c2ccccc2C3=O)cc1` (centres undefined), in the data set with Plasmodium falciparum [16], the IC50 stood at 9 µM.

Values taken from ChEMBL document CHEMBL5113376, “Antimalarial application of quinones: A recent update” (Eur J Med Chem, 2021).
